Measurements as given in ChEMBL document CHEMBL4346759, “The synthesis of a novel Crizotinib heptamethine cyanine dye conjugate that potentiates the cytostatic and cytotoxic effects of Crizotinib in patient-derived glioblastoma cell lines” (Bioorg Med Chem Lett, 2019).

Assays:
GBM [1] = test: Cytotoxicity against patient-derived GBM cells assessed as LDH release after 96 hrs by spectrophotometric method; type: functional, cell-based; conditions: Homo sapiens
GBM [2] = test: Antiproliferative activity against patient-derived GBM cells assessed as cell viability after 48 hrs by 5-Ethynyl-2'-deoxyuridine incorporation assay; type: functional, cell-based; conditions: Homo sapiens
GBM [3] = test: Antiproliferative activity against patient-derived GBM cells assessed as reduction in cell viability after 48 hrs by 5-Ethynyl-2'-deoxyuridine incorporation assay; type: functional, cell-based; conditions: Homo sapiens
GBM [4] = test: Selectivity ratio of EC50 for antiproliferative activity against patient-derived GBM cells to EC50 for antiproliferative activity against patient-derived GBM cells in presence of temozolomide; type: functional, Homo sapiens
GBM [5] = test: cells; type: functional, cell-based; conditions: Homo sapiens, 48 h
Description: Synergistic antiproliferative activity against patient-derived GBM cells assessed as reduction in cell viability after 48 hrs in presence of temozolomide by 5-Ethynyl-2'-deoxyuridine incorporation assay

GBM [6] = test: Synergistic antiproliferative activity against patient-derived GBM cells assessed as cell viability after 48 hrs in presence of temozolomide by 5-Ethynyl-2'-deoxyuridine incorporation assay; type: functional, cell-based; conditions: Homo sapiens
GBM [7] = test: Selectivity ratio of IC50 for antiproliferative activity against patient-derived GBM cells to IC50 for antiproliferative activity against patient-derived GBM cells in presence of temozolomide; type: functional, Homo sapiens

Row | Compound | EC50 (GBM [1]) [nM] | EC50 (GBM [2]) [nM] | IC50 (GBM [3]) [nM] | Ratio EC50 (GBM [4]) | IC50 (GBM [5]) [nM] | EC50 (GBM [6]) [nM] | Ratio IC50 (GBM [7])
1 | C[C@@H](Oc1cc(-c2cnn(C3CCN(C4=C(/C=C/C5=[N+](C)c6ccccc6C5(C)C)CCC/C4=C\C=C4\N(C)c5ccccc5C4(C)C)CC3)c2)cnc1N)c1c(Cl)ccc(F)c1Cl.[I-] | 93.1 | 50 | 4.7 | 3 | 1 | 15 | 
2 | C[C@@H](Oc1cc(-c2cnn(C3CCNCC3)c2)cnc1N)c1c(Cl)ccc(F)c1Cl [CRIZOTINIB] | 4300 | 5600 | 540 | 1.7 | 480 | 3200 | 1.13
